From patent US12194093B2, “Dosing parameters for CD47 targeting therapies to hematologic malignancies” (The Board of Trustees of the Leland Stanford Junior …, priority 2017, dated 2025)
Entries after “also recorded” stand apart in the source; their conditions may differ.

How the values were obtained:
[1] = test system: HL60 leukemia cells; test: Macrophage phagocytosis of HL60 leukemia cells (flow cytometry); assay type: cell-based, human; conditions: azacitidine 1 μM
Protocol: Macrophages were labeled with an anti-CD206 Ab and all cells were analyzed by flow cytometry to determine phagocytosis of HL60 leukemia cells. Phagocytosis of HL60 leukemia cells was determined as percentage of GFP positive, HL60 engulfing, macrophages compared to total number of macrophages. Results were normalized to the condition with maximal phagocytosis (100%).

[2] = test system: human AML; test: Human AML xenograft mouse model, early death and disease clearance; assay type: in vivo
Source text: We have established a human AML xenograft mouse model to test CD47-SIRPalpha pathway blocking therapies.
We also observed that early death seemed to be related to burden of circulating disease, in that mice with high levels of circulating leukemia cells succumbed to early death.
The object of this study was to determine whether early death observed in AML-xenografted mice can be avoided by reducing the rate at which leukemia cells are killed. […] It was hypothesized that early death might be due either to agglutination of leukemic cells or tumor lysis, and that early death may be avoided by reducing the rate at which leukemia cells are killed.
All mice in the control group continuously progressed and died.

[3] = test system: AML; test: AML Phase 1 trial, clinical response; assay type: in vivo, human
Protocol: (§1) This trough level served as the minimum trough level target to guide dosing in the Phase 1 trial. […] Rapid peaks and troughs observed were consistent with target-mediated disposition due to non-linear saturation of the CD47 sink. […] Dose levels of 10 mg/kg or greater (Cohorts 3 and 4) achieve target trough levels by about 4 weeks, which is the time of first response assessment.
Several additional factors are notable for these patients with biologic activity.

[4] = test system: circulating WBC; test: AML Phase 1 trial, cytoreduction with concomitant Hu5F9-G4, safety; assay type: in vivo, human; conditions: any patients treated on Phase 1 trial
[5] = AML Phase 1 trial, serum concentrations of Hu5F9-G4; assay type: in vivo, human; conditions: patients
Protocol: as §1

[6] = test system: myeloid mutations; test: Targeted DNA sequencing of myeloid mutations in Phase 1 AML patients; assay type: in vivo, human; conditions: Phase 1 AML patients receiving Hu5F9-G4
Source text: (§2) Prospective testing of AML patients' molecular, chromosomal, and phenotypic characteristics by DNA sequencing, cytogenetic analysis/fluorescence in situ hybridization (FISH), and flow cytometry, can lead to identification of patients with greater responses to Hu5F9-G4.

[7] = test system: bone marrow macrophages and T cells; test: Immunohistochemistry of macrophages and T cells in patient bone marrow; assay type: in vivo, human; conditions: patient with partial response
Protocol: In one patient that obtained a partial response, macrophage and T cell infiltrates in the bone marrow was assessed.

[8] = test system: AML; test: Pre-clinical models, trough level and anti-leukemic activity; assay type: in vivo
Protocol: as §1, §2

Molecule: Nc1ncn([C@@H]2O[C@H](CO)[C@@H](O)[C@H]2O)c(=O)n1 [Azacitidine]
- phagocytic elimination of HL60 leukemia cells by human macrophages [1]: did not enhance

Molecule: Hu5F9-G4: a humanized anti-CD47 antibody
- effect of intra-subject dose escalation (low doses first, then higher doses) ([2]; AML xenografted mice with high circulating burden): prevented early mortality but also resulted in safe clearance of leukemic cells
- clearance of disease ([2]; Cohort I, 100 μg/day for 14 days, sole surviving mouse): disease was cleared
- clearance of disease ([2]; Cohort III, 7 doses of 1 μg, 7 doses of 10 μg, 14 doses of 100 μg): noticeably diminished
- relapse ([2]; Cohort III, after end of treatment): relapsed several weeks after the end of treatment
- effect of retreatment after relapse ([2]; groups that received dose-escalating regimen): cleared the disease and led to long-term disease free survival in some cases
- early death ([2]; initial dose 1 μg (Cohort III)): no early deaths and None
- early death ([2]; initial dose 10 μg (Cohort II)): 1 of 5 and One mouse out of five
- early death ([2]; initial dose 100 μg (Cohort I)): Four out of five
- survival of subsequent doses ([2]; mouse, in vivo): remaining four mice survived
- time to death after administration of the first dose ([2]; xenografted mice with very high circulating AML burden (>50% of total WBC) and marrow infiltration): ≤ 1 h
- blast reduction ([3]; Cohort 3, one patient with partial response): > 50%
- RBC transfusion requirements ([3]; Cohort 3, patient with partial response, month 3 and beyond of treatment): from approximately every week prior to treatment to once a month
- duration of response ([3]; Cohort 3, patient with partial response, ongoing): over 6 months
- patients exhibiting biologic antileukemic activity ([3]; maximum of 10 mg/kg twice weekly (Cohort 3)): two out of three
- response to therapy ([3]; patients, at or below 3 mg/kg (Cohorts 1 and 2)): not expected nor observed
- acute death related to Hu5F9-G4 [4]: No acute death
- achievement of target trough levels (100 μg/ml) ([5]; dose levels 3 mg/kg or less (Cohorts 1 and 2)): did not achieve target trough levels
- time to achieve target trough levels (100 μg/ml) ([5]; dose levels of 10 mg/kg or greater (Cohorts 3 and 4)): about 4 weeks
- mutational burden (variant allele frequency) [6]: Reduction in mutational burden (variant allele frequency) was observed for some mutations over others
- macrophages present in the marrow (CD68 or CD163 staining) ([7]; week 4 of treatment): significant number of macrophages
- T cell infiltrates, of all bone marrow cells ([7]; week 8 of therapy, baseline 10-15% or 15%): 40-50%
- pre-clinical activity across AML subtypes ([8]; monotherapy, cytogenetic, molecular, phenotypic/morphologic subtypes): monotherapy activity across a wide range of cytogenetic, molecular, and phenotypic AML subtypes; also recorded: broad pre-clinical activity across AML morphologic, molecular, and cytogenetic subtypes
- activity in relation to tumor burden ([8]; pre-clinical and initial clinical studies): enhanced activity in lower tumor burden of disease
- trough level associated with efficacy ([8]; pre-clinical models): ≥ 100 µg/mL
